Experimental data taken from paper PMC10682503, “Structural and functional basis of inositol hexaphosphate stimulation of NHEJ through stabilization of Ku-XLF interaction” (Nucleic Acids Research, 2023).

What was measured:
[1] = target: T1, KuFL-DNA interaction (Homo sapiens, UniProt P12956+P13010); test: switchSENSE kinetics of KuFL interaction with 48bp DNA; assay type: binding; conditions: IP6 3 μM
T1 construct: The full-length human Ku heterodimer subunits (Ku70 1–609, Ku80 1–732); 10x His-tag with TEV site (N); made in house; host or cells: Sf21 insect cells (baculovirus, MultiBac)
T1 sequence (P12956 whole entry): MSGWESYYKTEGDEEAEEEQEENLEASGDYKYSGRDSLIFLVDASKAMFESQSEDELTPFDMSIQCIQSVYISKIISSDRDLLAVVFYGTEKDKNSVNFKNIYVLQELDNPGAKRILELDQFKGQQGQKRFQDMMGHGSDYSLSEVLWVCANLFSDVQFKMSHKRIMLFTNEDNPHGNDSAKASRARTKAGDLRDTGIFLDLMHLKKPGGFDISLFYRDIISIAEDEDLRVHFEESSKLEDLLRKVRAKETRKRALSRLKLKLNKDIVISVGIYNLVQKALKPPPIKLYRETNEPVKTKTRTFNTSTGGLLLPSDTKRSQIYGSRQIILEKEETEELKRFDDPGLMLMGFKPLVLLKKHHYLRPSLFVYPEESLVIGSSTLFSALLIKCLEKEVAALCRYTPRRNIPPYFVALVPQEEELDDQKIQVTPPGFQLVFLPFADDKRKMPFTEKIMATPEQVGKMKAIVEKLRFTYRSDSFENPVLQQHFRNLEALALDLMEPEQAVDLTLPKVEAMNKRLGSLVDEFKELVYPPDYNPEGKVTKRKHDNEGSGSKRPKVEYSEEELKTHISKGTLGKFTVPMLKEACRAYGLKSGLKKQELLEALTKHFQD
T1 sequence (P13010 whole entry): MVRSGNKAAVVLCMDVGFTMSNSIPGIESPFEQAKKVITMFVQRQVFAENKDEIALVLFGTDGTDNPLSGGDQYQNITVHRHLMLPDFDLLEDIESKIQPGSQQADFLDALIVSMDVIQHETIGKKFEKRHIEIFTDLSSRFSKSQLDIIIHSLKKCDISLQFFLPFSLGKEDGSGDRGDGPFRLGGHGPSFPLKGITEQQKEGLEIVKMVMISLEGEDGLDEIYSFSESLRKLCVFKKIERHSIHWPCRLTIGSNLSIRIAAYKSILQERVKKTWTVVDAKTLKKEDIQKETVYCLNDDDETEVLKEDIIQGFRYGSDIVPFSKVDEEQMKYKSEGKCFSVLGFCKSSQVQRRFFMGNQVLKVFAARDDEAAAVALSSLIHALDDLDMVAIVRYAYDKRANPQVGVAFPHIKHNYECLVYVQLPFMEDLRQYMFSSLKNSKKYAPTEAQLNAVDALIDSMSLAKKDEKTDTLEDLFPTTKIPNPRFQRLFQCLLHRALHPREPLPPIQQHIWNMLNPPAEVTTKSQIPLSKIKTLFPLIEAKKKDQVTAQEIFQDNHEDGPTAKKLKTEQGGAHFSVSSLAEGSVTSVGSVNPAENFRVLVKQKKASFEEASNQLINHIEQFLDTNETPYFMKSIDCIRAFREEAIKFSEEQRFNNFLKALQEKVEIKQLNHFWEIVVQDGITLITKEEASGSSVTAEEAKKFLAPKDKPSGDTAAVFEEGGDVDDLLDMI
Procedure: switchSENSE: A DRX 2400 instrument and a multi-purpose 48bp chip were used for switchSENSE measurements (both Dynamic Biosensors GmbH; Planegg, Germany). The sample and running buffer was in 10 mM Tris HCl pH 7.4, 140 mM NaCl, 50 µM EDTA, 0.05 % Tween-20, 50µM EDTA. Kinetics experiments of Ku interaction with DNA in presence or absence of IP6 were performed on a DRX2 instrument. Complementary DNA to the strand immobilized on the chip was first hybridized on the measurement electrodes. The association and dissociation between Ku and DNA, with or without IP6 (3 µM) at Ku concentration (0-15-30-60-120-240 nM were measured in a flow rate of 200 µL/min. Kinetics experiments of Ku interaction with DNA and XLF with or without DNA were performed on a Helix instrument. The sample and running buffer was in 10 mM Tris HCl pH 7.4, 140 mM NaCl, 50 µM EDTA, 0.05 % Tween-20 with or without IP6 (20 µM). The flow rate of all conditions are at 500 µL/min.

[2] = target: T2, KuΔC (Ku heterodimer deleted of its C-terminal regions) (Homo sapiens, UniProt P12956+P13010); test: ITC, KuΔC with IP6; assay type: binding
T2 construct: heterodimer deleted of its C-terminal region (Ku70 1–544, Ku80 1–551); His-tag (10x His with TEV site, same vector as KuFL) (N); made in house; host or cells: Sf21 insect cells
T2 sequence (P12956 1-544, stated change not applied): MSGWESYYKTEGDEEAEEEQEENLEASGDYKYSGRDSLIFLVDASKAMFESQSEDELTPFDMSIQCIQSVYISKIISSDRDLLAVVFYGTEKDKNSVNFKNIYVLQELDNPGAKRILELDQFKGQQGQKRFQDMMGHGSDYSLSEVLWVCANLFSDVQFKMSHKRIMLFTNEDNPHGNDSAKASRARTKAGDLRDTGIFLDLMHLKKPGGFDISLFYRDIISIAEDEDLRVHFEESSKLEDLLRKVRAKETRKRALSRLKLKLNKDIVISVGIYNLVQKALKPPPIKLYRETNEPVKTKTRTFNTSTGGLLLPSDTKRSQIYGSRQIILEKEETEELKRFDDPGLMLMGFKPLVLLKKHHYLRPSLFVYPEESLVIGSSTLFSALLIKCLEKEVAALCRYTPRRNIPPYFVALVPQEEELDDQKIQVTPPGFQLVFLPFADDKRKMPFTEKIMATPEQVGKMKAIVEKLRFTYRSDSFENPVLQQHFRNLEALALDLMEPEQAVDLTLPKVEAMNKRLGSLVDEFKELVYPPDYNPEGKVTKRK
T2 sequence (P13010 1-551, stated change not applied): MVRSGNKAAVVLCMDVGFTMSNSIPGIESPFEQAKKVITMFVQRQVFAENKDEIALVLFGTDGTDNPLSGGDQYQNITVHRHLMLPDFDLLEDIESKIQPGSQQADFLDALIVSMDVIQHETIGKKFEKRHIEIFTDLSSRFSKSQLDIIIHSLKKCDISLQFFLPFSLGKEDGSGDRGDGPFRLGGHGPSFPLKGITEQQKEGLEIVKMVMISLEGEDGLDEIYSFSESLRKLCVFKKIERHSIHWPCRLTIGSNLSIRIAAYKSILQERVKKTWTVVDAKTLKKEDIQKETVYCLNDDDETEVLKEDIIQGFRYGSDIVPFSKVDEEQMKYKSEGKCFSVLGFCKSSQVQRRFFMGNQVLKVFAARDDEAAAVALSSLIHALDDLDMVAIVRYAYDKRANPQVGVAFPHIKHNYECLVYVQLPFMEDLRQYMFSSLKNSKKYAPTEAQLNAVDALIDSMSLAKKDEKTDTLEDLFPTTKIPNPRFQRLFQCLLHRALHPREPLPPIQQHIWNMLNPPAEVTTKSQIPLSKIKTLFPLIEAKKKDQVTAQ
Procedure: Purification of Ku full-length (KuFL) for cryo-EM experiments was carried out as described previously ([5]). Expression and purification of KuFL for biophysical experiments was carried out as described previously ([20]). The full-length human Ku heterodimer subunits (Ku70 1–609, Ku80 1–732) were cloned into a Multibac vector ([21]). The construct has a 10× His-tag and a TEV site on the N-terminus of Ku80 and no-tag on Ku70. Protein production was initiated in Sf21 cells by infection with the baculovirus stock at MOI of 5 × 10^−3 and cells were collected 5–6 days after the infection (3–4 days after the proliferation arrest). Cells were sonicated and the supernatant was incubated with Benzonase (300 units for 30 min at 4°C). The Ku heterodimer was purified on a NiNTA-Agarose affinity column (Protino, Macherey Nagel) with a 1 M NaCl wash step to remove DNA excess. The eluted Ku was then bound onto an anion exchange column (Resource Q, Cytiva) equilibrated in 20 mM Tris pH 8.0, 50 mM NaCl, 50 mM KCl, 10 mM β-mercaptoethanol and eluted with a salt gradient. […]
Calorimetry. Interactions between KuFL and inositol phosphates (IPs) (IP6 and IP6 analogues) were determined by Isothermal Titration Calorimetry (ITC) using a VP-ITC calorimeter (Malvern). […] The free energy of binding (ΔG) and the entropy (ΔS) were determined using the classical thermodynamic formula, ΔG = - RT ln(Ka) and ΔG = ΔH - TΔS. […]

[3] = target: T3, Ku-4E (Ku70 H359E-H360E/Ku80 K413E H414E) (Homo sapiens, UniProt P12956+P13010, H359E/H360E/H414E/K413E); test: nanoDSF thermal stability of Ku-4E; conditions: Ku-4E with DNA
T3 construct: 10x His-tag with TEV site (same vector as KuFL) (N); made in house; host or cells: Sf21 insect cells
T3 sequence (P12956 whole entry H359E/H360E): as the sequence (P12956 whole entry) above, with H359E, H360E counted along it
T3 sequence (P13010 whole entry K413E/H414E): as the sequence (P13010 whole entry) above, with K413E, H414E counted along it

O=P(O)(O)O[C@H]1[C@H](OP(=O)(O)O)[C@@H](OP(=O)(O)O)[C@H](OP(=O)(O)O)[C@@H](OP(=O)(O)O)[C@H]1OP(=O)(O)O [IP6, inositol hexaphosphate]
effect on Ku-DNA interaction [1]: slight stimulation of the interaction
weaker affinity of KuΔC compared with KuFL [2]: ~50 fold
Kd ([2]; KuΔC construct): 178 ± 12 nM
further thermal stabilization by IP6 [3]: not further stabilized
